Laboratory results from patent US9969761B2, “Stabilisation of radiopharmaceutical precursors” (GE HEALTHCARE LIMITED, priority 2004, dated 2018).
Several values for one entry are separate records, joined by “and”; a condition that tells them apart may be missing. Equal entries are not always repeated.

Assays:
[1] = Radiolabelling with 18F- in a glassy carbon reactor after storage (pFDG RCP), Examples 1 and 2; format: physicochemical; settings: storage time 0 weeks, MT 20 mg in 1.6 ml acetonitrile
Procedure: (§1) Filled and capped units are kept in storage at 25° C. and 50° C. in thermally controlled cabinets for set periods of time at which “pull points” a vial was removed from storage and subjected to the testing outlined below.
Radioactive methods (hot) performed: Radiolabelling with ^18F^− in a glassy carbon reactor (all pull points). Each dry sample of mannose triflate (20 mg) is dissolved in dry acetonitrile (1.6 ml). For the mannose triflate stored in acetonitrile, an aliquot (3.3 ml) was removed and diluted to 4.0 ml with acetonitrile and 1.6 ml of this solution was used in the radiolabelling test. For the samples taken after 2 weeks storage at 50° C., a 1.6 ml sample of the mannose triflate solution was used directly without further dilution. In all cases, the radiolabelling was performed after drying an ^18F solution of Kryptofix 2.2.2 (19.4 mg), potassium carbonate (41.0 mg), acetonitrile (0.32 ml) and water (0.04 ml) for 4 minutes at 80° C. before adding the test solution of mannose triflate in acetonitrile. The labelling reaction was carried out at 80° C. for 4 minutes in a glassy carbon reactor. […]
Using similar method to Example 1, the stability of mannose triflate in acetonitrile with water at level of approximately 725, 1450, and 2500 ppm was evaluated. […]

[2] = Purity by HPLC-UV after storage; format: physicochemical; settings: dry powder; 2 weeks storage at 50° C.
Procedure: as §1
(§2) Non-radioactive methods (cold) performed: • Appearance/organoleptic test, all pull points • Purity by HPLC-UV, all pull points • ^19F-NMR, all pull points • Water content analysis, at time zero.
HPLC Method: octadecylsilyl silica gel (5 μm) column (Hichrom Nucleosil 100-5C18), temperature 25° C.; injection volume 20 μl; mobile phase of water: acetonitrile gradient, 1 ml/min. Detection by spectrophotometer at 220 nm.
HPLC-UV traces for the solid mannose triflate control experiment and the acetonitrile solution of mannose triflate are shown in FIGS. 1 and 2 respectively. Mannose triflate elutes at 32.5 minutes.

[3] = Appearance/organoleptic test after storage; format: physicochemical; settings: dry powder; 2 weeks storage at 50° C.
Procedure: as §1, §2

[4] = IR of stored dry powder; format: physicochemical; settings: 2 weeks storage at 50° C.
[5] = Comparative example: radiolabelling of stored dry powder mannose triflate, RCP by ITLC; format: physicochemical; settings: for % RCP: dry powder
Procedure: Dry powder mannose triflate was stored in vials at different temperatures and for different time periods.
A solution of potassium carbonate (41 mg of potassium carbonate in 40 μl water) was added to a glassy carbon reactor and then a solution of kryptofix 222 (19.4 mg in 320 μl) was added separately. Then a solution of 18-fluoride in water (0.05 ml) was added and the solution dried by heating to 80° C. for 4 mins with a flow of dry nitrogen (at 0.3 liters/min). A solution of 1,3,4,6-tetra-O-acetyl-2-O-trifluoromethanesulfonyl-β-D-mannopyranose (20 mg in 1.6 ml dry acetonitrile) was then added and the reaction heated for a further 4 minutes at 80° C. The reaction was then cooled to 50° C. and a sample removed for analysis by ITLC (Instant thin layer chromatography) on TLC aluminium sheets silica gel 60 F254 eluting with 95% acetonitrile, 5% water. The radiochemical purity was calculated from the ratio of 1,3,4,6-tetra-O-acetyl-2-fluoro-β-D-mannopyranose to the total of the sugar and free fluoride (the sole two components from the reaction).

[6] = dry powder at 5° C.; cited from earlier work

pFDG RCP % ([1]; listed as Control (N2)): 82% and 93%
pFDG RCP % ([1]; listed as Control (air)): 87% and 86%
HPLC-UV detection of mannose triflate [2]: no mannose triflate was detected
IR identity [4]: no longer mannose triflate
% RCP ([5]; 0 days under air, listed as Dry powder mannose triflate): 87% and 86%
% RCP ([5]; 1 day @ room temperature under dry N2, listed as Dry powder mannose triflate): 82% and 93%
% RCP ([5]; 5 days @ 50° C. under air): 5%
% RCP ([5]; 127 days @ 25° C. under air): 1%
stability of dry powder (conclusion from RCP data) ([5]; room temperature, much worse at 50° C.): significant instability
SMILES: CC(=O)OC[C@H]1O[C@@H](OC(C)=O)[C@@H](OS(=O)(=O)C(F)(F)F)[C@@H](OC(C)=O)[C@@H]1OC(C)=O [mannose triflate, 1,3,4,6-tetra-O-acetyl-2-O-trifluoromethanesulfonyl-β-D-mannopyranose]
Appearance/organoleptic [3]: black and smelled strongly of acetic acid
shelf life [6]: 6 months
